This is an account of results in patent US20260114446A1, “Compositions, Methods and Devices for Control and Monitoring Insects” (Agriculture Victoria Services Pty Ltd, priority 2023, published 2026).

Holding throughout (type): in vivo
Assay [1] has as its system Carpophilus truncatus. Description: Field experiment of pheromone lure septa in an almond orchard (Example 3), C. truncatus catches. Conditions: septa in bucket traps with co-attractant solution (45% ethanol, isopentyl alcohol) and Dichlorvos strip; 10 replicates; 6 weeks, samples fortnightly; p<0.001. As to the method: A field experiment was designed to test the attractancy of the previously described C. truncatus Pheromone 2 under field conditions and the pheromonal (attractant) activity of newly identified Pheromone 3. […] All pheromones were tested together with a co-attractant mixture in the form of an aqueous ethanol and isopentyl alcohol solution, which acts synergistically to elicit a strong behavioural response in C. truncatus.
Pheromone test lures were loaded on white Precision Seal® rubber septa (8 mm OD, Sigma Aldrich product code: Z553913) with butylated hydroxytoluene used an antioxidant. The quantities of individual compounds applied on the septa were determined by SPME-GC-MS analyses of test septa at days 1 and 3 to produce the two pheromones in approximately equal ratios. The quantity of antioxidant was chosen based on the existing literature as 10% of the ratio of the dominant pheromone (Table 2). Hexane dilutions of the neat pheromones were prepared, and desired quantities loaded onto the septa. […]
The field trial was carried out from December 2021 in a commercial almond orchard located near Mildura, Victoria, Australia. […] Beetles present in different traps were identified and counted under a stereomicroscope. […]
Field data were analysed using a Generalized Linear Mixed Model (GLMM) fitted with a negative binomial distribution using the glmmTMB package (Brooks et al. 2019). […]

Assay [2] concerns other Carpophilus species. Description: Two-week field trial of lure treatments (Example 4), catches of other Carpophilus species. Conditions: 20 repeats per treatment, with co-attractant. As to the method: (§1) A short trial was carried out over two weeks. Treatments were randomised and replicated in 10 tree rows with approximately 50 m spacing between traps (10 rows×2 treatments—20 repeats per treatment; 3 treatments of 20 repeats is 60 traps used). The treatments are shown in Table 3: Data was analysed in a similar way to Example 3 using GLMM with trap catches as response variable, lure treatment as fixed factor and row and column as random (spatial features). Turkey's adjusted post hoc tests for multiple comparisons of a family of three estimates. The results of the mixed model are: Wald χ2=[…], p=2.64 10^−14.

In assay [3] the test system is Carpophilus truncatus. Nature of the assay: Two-week field trial of lure treatments (Example 4), C. truncatus catches. Conditions: 20 repeats per treatment, with co-attractant, high beetle populations. As to the method: as §1

As to `C/C=C(C)/C=C(C)/C=C(C)/C=C/CC` [Phero 2, (E,E,E,E)-3,5,7-trimethyl-2,4,6,8-undecatetraene], the “C. truncatus beetle catches” value in assay [1] is “caught significantly more beetles than the commercial tri-species septa”.
`CCCCCCCCCCCCCC=O` [Phero 3, tetradecanal]: the “Other Carpophilus species beetles caught” value in assay [2] was “caught significantly less C. truncatus and other Carpophilus species beetles than Phero 2 and Phero 2+Phero 3”. The “C. truncatus beetles caught” value in assay [3] is “caught significantly less C. truncatus and other Carpophilus species beetles than Phero 2 and Phero 2+Phero 3”.
